Data taken from patent US10131652B2, “Pyrimidinyloxy benzene derivatives as herbicides” (E. I. DU PONT DE NEMOURS AND COMPANY, priority 2014, dated 2018).
Read-outs that look alike come from different tables or passages of the source.

Columns and labels:
Type in all cases: in vivo
[1] = system: barnyardgrass (Echinochloa crus-galli); experiment: Test C flooded paddy test plant response; settings: Echinochloa crus-galli; Flood, 250 g ai/ha; scale of 0 to 100 where 0 is no effect and 100 is complete control; 13 to 15 days; read-out: Barnyardgrass plant response rating
Procedure, shortened: (§1)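 Plants grown to 2-leaf stage, flooded 3 cm above soil; compounds applied directly into paddy water, depth kept throughout. Visual rating versus controls after 13 to 15 days in greenhouse, 0 (no effect) to 100 (complete control).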

[2] = system: ducksalad (Heteranthera limosa); experiment: Test C flooded paddy test plant response; settings: Heteranthera limosa; Flood, 250 g ai/ha; scale of 0 to 100 where 0 is no effect and 100 is complete control; 13 to 15 days; read-out: Ducksalad plant response rating
Procedure, shortened: as §1

rice (Oryza sativa) = experiment: Test C flooded paddy test plant response; settings: Oryza sativa; Flood, 250 g ai/ha; scale of 0 to 100 where 0 is no effect and 100 is complete control; 13 to 15 days; read-out: Rice plant response rating
Procedure, shortened: as §1

[3] = system: small-flower umbrella sedge (Cyperus difformis); experiment: Test C flooded paddy test plant response; settings: Cyperus difformis; Flood, 250 g ai/ha; scale of 0 to 100 where 0 is no effect and 100 is complete control; 13 to 15 days; read-out: Sedge, Umbrella plant response rating
Procedure, shortened: as §1

[4] = system: johnsongrass (Sorghum halepense); experiment: Test D pre-/postemergence plant response; settings: Sorghum halepense; for pest or weed control at 16 g/ha: 16 g ai/ha; for pest or weed control at 31 g/ha: 31 g ai/ha; for pest or weed control at 62 g/ha: 62 g ai/ha; for pest or weed control at 125 g/ha: 125 g ai/ha
Procedure, shortened: (§2)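 Test chemicals were formulated in a non-phytotoxic solvent mixture containing surfactant and applied either preemergence to seeds in loam–sand soil or postemergence to plants 2 to 18 cm tall (1- to 4-leaf stage). Response was rated visually against controls after 13 to 15 days, from 0 (none) to 100 (complete control).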

[5] = system: large (Lg) crabgrass (Digitaria sanguinalis); experiment: Test D pre-/postemergence plant response; settings: Digitaria sanguinalis; for pest or weed control at 16 g/ha: 16 g ai/ha; for pest or weed control at 31 g/ha: 31 g ai/ha; for pest or weed control at 62 g/ha: 62 g ai/ha; for pest or weed control at 125 g/ha: 125 g ai/ha
Procedure, shortened: as §2

[6] = system: oilseed rape (Brassica napus); experiment: Test D pre-/postemergence plant response; settings: Brassica napus; for plant injury at 16 g/ha: 16 g ai/ha; for plant injury at 31 g/ha: 31 g ai/ha; for plant injury at 62 g/ha: 62 g ai/ha; for plant injury at 125 g/ha: 125 g ai/ha
Procedure, shortened: as §2

soybean (Glycine max) = experiment: Test D pre-/postemergence plant response; settings: Glycine max; for plant injury at 16 g/ha: 16 g ai/ha; for plant injury at 31 g/ha: 31 g ai/ha; for plant injury at 62 g/ha: 62 g ai/ha; for plant injury at 125 g/ha: 125 g ai/ha
Procedure, shortened: as §2

[7] = post-emergence, Postemergence, scale 0 to 100, 0 no effect, 100 complete control, read-out: Plant response rating, Johnsongrass
[8] = pre-emergence, Preemergence, scale 0 to 100 (0 no effect, 100 complete control), read-out: Plant response rating, Johnsongrass
[9] = post-emergence, Postemergence, scale 0 to 100, 0 no effect, 100 complete control, read-out: Plant response rating, Crabgrass, Large
[10] = pre-emergence, Preemergence, scale 0 to 100 (0 no effect, 100 complete control), read-out: Plant response rating, Crabgrass, Large
[11] = pre-emergence, Preemergence, scale 0 to 100 (0 no effect, 100 complete control), read-out: Plant response rating, Oilseed Rape
[12] = pre-emergence, Preemergence, scale 0 to 100 (0 no effect, 100 complete control), read-out: Plant response rating, Soybean

FC(F)(F)c1cc(-c2ccccc2Oc2ncc(Cl)cn2)no1 [Compound 200, 5-chloro-2-[2-[5-(trifluoromethyl)-3-isoxazolyl]phenoxy]pyrimidine]
pest or weed control at 250 g/ha [1]: 90% | pest or weed control at 250 g/ha [2]: 100% | plant injury at 250 g/ha (rice (Oryza sativa)): 35% | pest or weed control at 250 g/ha [3]: 100% | pest or weed control at 16 g/ha ([4]; post-emergence, Postemergence, read-out: Plant response rating (scale 0 to 100), Johnsongrass): 15% | pest or weed control at 31 g/ha ([4]; post-emergence, Postemergence, scale 0 to 100 (0 no effect, 100 complete control), read-out: Johnsongrass plant response rating): 20% | pest or weed control at 62 g/ha [4, 7]: 45% | pest or weed control at 125 g/ha [4, 7]: 40% | pest or weed control at 125 g/ha ([4]; pre-emergence, Preemergence, read-out: Plant response rating (scale 0 to 100), Johnsongrass): 100% | pest or weed control at 16 g/ha [4, 8]: 25% | pest or weed control at 31 g/ha [4, 8]: 60% | pest or weed control at 62 g/ha [4, 8]: 85% | pest or weed control at 16 g/ha ([5]; post-emergence, Postemergence, read-out: Plant response rating (scale 0 to 100), Crabgrass, Large): 10% | pest or weed control at 31 g/ha ([5]; post-emergence, Postemergence, scale 0 to 100 (0 no effect, 100 complete control), read-out: Crabgrass, Large plant response rating): 10% | pest or weed control at 62 g/ha [5, 9]: 25% | pest or weed control at 125 g/ha [5, 9]: 35% | pest or weed control at 125 g/ha ([5]; pre-emergence, Preemergence, read-out: Plant response rating (scale 0 to 100), Crabgrass, Large): 100% | pest or weed control at 16 g/ha [5, 10]: 98% | pest or weed control at 31 g/ha [5, 10]: 100% | pest or weed control at 62 g/ha [5, 10]: 100% | plant injury at 16 g/ha ([6]; post-emergence, Postemergence, read-out: Plant response rating (scale 0 to 100), Oilseed Rape): 70% | plant injury at 31 g/ha ([6]; post-emergence, Postemergence, scale 0 to 100 (0 no effect, 100 complete control), read-out: Oilseed Rape plant response rating): 85% | plant injury at 62 g/ha ([6]; post-emergence, Postemergence, scale 0 to 100, 0 no effect, 100 complete control, read-out: Oilseed Rape plant response rating): 100% | plant injury at 125 g/ha ([6]; post-emergence, Postemergence, scale 0 to 100, 0 no effect, 100 complete control, read-out: Plant response rating, Oilseed Rape): 100% | plant injury at 125 g/ha ([6]; pre-emergence, Preemergence, read-out: Plant response rating (scale 0 to 100), Oilseed Rape): 100% | plant injury at 16 g/ha [6, 11]: 85% | plant injury at 31 g/ha [6, 11]: 100% | plant injury at 62 g/ha [6, 11]: 100% | plant injury at 16 g/ha (soybean (Glycine max); post-emergence, Postemergence, read-out: Plant response rating (scale 0 to 100), Soybean): 60% | plant injury at 31 g/ha (soybean (Glycine max); post-emergence, Postemergence, scale 0 to 100 (0 no effect, 100 complete control), read-out: Soybean plant response rating): 85% | plant injury at 62 g/ha (soybean (Glycine max); post-emergence, Postemergence, scale 0 to 100, 0 no effect, 100 complete control, read-out: Soybean plant response rating): 90% | plant injury at 125 g/ha (soybean (Glycine max); post-emergence, Postemergence, scale 0 to 100, 0 no effect, 100 complete control, read-out: Plant response rating, Soybean): 98% | plant injury at 125 g/ha (soybean (Glycine max); pre-emergence, Preemergence, read-out: Plant response rating (scale 0 to 100), Soybean): 85% | plant injury at 16 g/ha (soybean (Glycine max); [12]): 100% | plant injury at 31 g/ha (soybean (Glycine max); [12]): 10% | plant injury at 62 g/ha (soybean (Glycine max); [12]): 40%
